Where a SMILES comes first, the peptide text is derived from it.

One series deals with PKA(h) (Homo sapiens, UniProt P17612). The series is described as follows: Kinase Profiling Assay. As to conditions: 100 μM peptide. Format: biochemical. The gist of the method:
(§1)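 Each kinase in a 266-member human panel is assayed, in duplicate, for activity in the presence of MK2 inhibitory peptides to gauge specificity.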

In series [1] the test system is bleomycin-induced lung fibrosis in C57BL/6 mice. The series is described as follows: Bleomycin mouse model of pulmonary fibrosis, prevention model (dosing day 7 to 21). Format: in vivo. As to conditions: for collagen levels in the lung (Masson's blue trichrome), dose response: 25, 50 or 75 μg/kg daily IP, day 7 to 21. The method, then:
A mouse model of pulmonary fibrosis was generated by administering 0.025 U of bleomycin/PBS intratracheally to C57BL/6 mice. […] At 21 day post bleomycin delivery (for prevention model) or 28 post bleomycin delivery (for treatment model), groups of mice were sacrificed with a sodium pentobarbital injection (120 mg/kg) and the chest cavity was opened. The right mainstem bronchus was ligated and the right lung was removed. The trachea was cannulated and the left lung was perfused with 4% formaldehyde at 21 cm H2O pressure. The tissue blocks then were embedded in paraffin, and […] sections were prepared for staining. Sections from each animal were stained with hematoxylin and eosin (H&E) to visualize cells or with Masson's Trichrome staining to highlight collagen deposition. […] Stained sections were mounted onto a labeled glass slide with organic mounting medium.
Briefly, fibrotic loci in the lungs of the mice were induced by delivering intratracheally about 0.025 U of bleomycin (dissolved in PBS) to C57BL/6 mice. […] Briefly, mice were sacrificed with a sodium pentobarbital injection (120 mg/kg) and the chest cavity was opened. The right mainstem bronchus was ligated and the right lung was removed. The trachea was cannulated and the left lung was perfused with 4% formaldehyde at 21 cm H2O pressure. The tissue blocks then were embedded in paraffin, and […] sections were prepared, and stained with hematoxylin and eosin (H&E; for pathological examination) or Masson's Trichrome (for collagen staining)
Next, total collagen levels in the lungs of the bleomycin-injured mice (FIG. 12) were analyzed quantitatively by computing a constant conversion factor (7.5) for collagen from hydroxyproline concentrations (Neuman R. and Logan M, J Biol Chem., 186(2):549-56, 1950, incorporated by reference).
Next, the effect of increasing doses of MK2 peptide inhibitors on collagen deposition was examined in vivo using the bleomycin mouse model of idiopathic pulmonary fibrosis (prevention model). Briefly, C57-BL/6 mice were subjected to bleomycin injury at day 0.

In series [2] the test system is human fetal lung fibroblasts (IMR-90). Briefly: TGF-β-mediated fibronectin expression in IMR-90 cells. As to conditions: 1 h pre-treatment, TGF-β1 2 ng/ml 72 h. The class given is cell-based. As for the experimental part: Fibronection was measured as secreted fragments in the conditioned media. Equal amounts (14 μg) of total proteins from the conditioned media were loaded in each lane.

Another series addresses T1, Aurora-A(h) (Homo sapiens, UniProt O14965).
T1 sequence (O14965 1-403): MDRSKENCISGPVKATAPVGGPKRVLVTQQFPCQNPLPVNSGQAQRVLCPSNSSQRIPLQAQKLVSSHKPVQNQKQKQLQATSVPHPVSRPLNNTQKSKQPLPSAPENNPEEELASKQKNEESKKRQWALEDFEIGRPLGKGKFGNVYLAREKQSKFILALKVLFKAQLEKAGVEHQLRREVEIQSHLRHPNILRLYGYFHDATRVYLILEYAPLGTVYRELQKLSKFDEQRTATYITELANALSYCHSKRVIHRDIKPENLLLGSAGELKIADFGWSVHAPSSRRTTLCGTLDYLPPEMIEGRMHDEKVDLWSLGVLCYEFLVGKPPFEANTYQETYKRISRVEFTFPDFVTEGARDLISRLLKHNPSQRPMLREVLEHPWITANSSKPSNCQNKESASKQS
The series is described as follows: Kinase Profiling Assay. Format: biochemical. As to conditions: 100 μM peptide. Summed up: as §1

A further series deals with PDGFRα(D842V)(h) (Homo sapiens, UniProt P16234, D842V). The series is described as follows: Kinase Profiling Assay. Format: biochemical. As to conditions: 100 μM peptide. The gist of the method: as §1
A further series addresses cKit(V560G)(h) (Homo sapiens, UniProt P10721, V560G). Briefly: Kinase Profiling Assay. The class given is biochemical. The settings on record: 100 μM peptide. Summed up: as §1
The subject of the next series is splenic T cells. The series is described as follows: Autologous mixed lymphocyte reaction of splenic T cells from treated bleomycin mice. The settings on record: day 7 to 21. The class given is in vivo, mouse. The source says:
Recent studies highlighted a key role for T lymphocytes in bleomycin-induced fibrosis (Wilson, M. et al., The Journal of Experimental Medicine, 207(3): 535-552, 2010). […] Specifically, the ability of C57BL/6 purified antigen-presenting cells to induce proliferation in C57BL/6 T lymphocytes was examined in the assay.
C57-BL/6 mice were subjected to bleomycin injury at day 0. […] Splenic T cells were isolated and cultured alone or in the presence of autologous antigen presenting cells (APCs from C57-BL/6 mice) or stimulated with antibodies against CD3 (α-CD3) for 48 h. The cells then were radiolabeled with […] thymidine for 16 h and assessed for proliferation rates.

A further series deals with phospho-Thr^334-MAPKAPK2. Briefly: Activated MK2 immunostaining of lung sections, bleomycin treatment model. The class given is in vivo, mouse. As to conditions: 50 μg/kg daily IP or NEB, day 14 to 28. The source says:
Briefly, C57-BL/6 mice were subjected to bleomycin injury at day 0. […] Formalin-fixed lung tissue sections were immunostained against phospho-Thr^334 MK2. Control staining was with biotinylated secondary IgG antibody. Streptavidin-conjugated horseradish peroxidase was used with 3,3′-diaminobenzidene as substrate and nuclei was counterstained with hematoxylin.

In the next series the test system is TNF-α. Briefly: Circulating inflammatory cytokines, bleomycin treatment model. As to conditions: intraperitoneal or nebulized; 24 hours after final administration. The class given is in vivo, mouse.
For a further series, the system named is α-SMA. Briefly: α-SMA immunostaining of lung sections, bleomycin treatment model. The class given is in vivo, mouse. The settings on record: 50 μg/kg/day IP or NEB, day 14 to 28; vs untreated bleomycin-injured lungs. The source says:
C57-BL/6 mice were subjected to bleomycin injury at day 0. […] Formalin-fixed lung tissue sections were immunostained against α-SMA. Control staining was with biotinylated secondary IgG antibody. Streptavidin-conjugated horseradish peroxidase was used with 3,3′-diaminobenzidene as substrate and nuclei was counterstained with hematoxylin. Original magnifications: 20×

The test system of series [3] is Porcine airway smooth muscle (PASM). Briefly: ISO-induced relaxation of airway smooth muscle rings in muscle bath. The settings on record: 100 μM for 1 hr; CCh-contracted rings; n=3. From the text: Porcine airway smooth muscle (PASM) rings were isolated from second generation bronchi, cartilage was peeled off and then hung in a muscle bath and equilibrated in Kreb's buffer for 3 hrs. […] ISO is a β-adrenergic agonist that relaxes almost all varieties of […] when the tone is high, but its action is most pronounced on bronchial and gastrointestinal smooth muscle. It prevents or relieves bronchoconstrution. Its effect in asthma maybe due in part to an additional action to inhibit antigen-induced release of histamine and other mediators of inflammation; this action is shared by β2-receptor-selective stimulants. Goodman & Gilman's The Pharmacological Basis of Therapeutics, Joel G. Hardman and Lee E. Limberd, Eds., 10th Ed. […] Force was normalized to the weight and length of the tissue and converted to stress and relaxation induced was calculated.

Setting [4] is: nebulization or intraperitoneal, daily day 7 to 21, lung at day 21.

Sequence of PDGFRα(D842V)(h) (P16234 24-1089 D842V): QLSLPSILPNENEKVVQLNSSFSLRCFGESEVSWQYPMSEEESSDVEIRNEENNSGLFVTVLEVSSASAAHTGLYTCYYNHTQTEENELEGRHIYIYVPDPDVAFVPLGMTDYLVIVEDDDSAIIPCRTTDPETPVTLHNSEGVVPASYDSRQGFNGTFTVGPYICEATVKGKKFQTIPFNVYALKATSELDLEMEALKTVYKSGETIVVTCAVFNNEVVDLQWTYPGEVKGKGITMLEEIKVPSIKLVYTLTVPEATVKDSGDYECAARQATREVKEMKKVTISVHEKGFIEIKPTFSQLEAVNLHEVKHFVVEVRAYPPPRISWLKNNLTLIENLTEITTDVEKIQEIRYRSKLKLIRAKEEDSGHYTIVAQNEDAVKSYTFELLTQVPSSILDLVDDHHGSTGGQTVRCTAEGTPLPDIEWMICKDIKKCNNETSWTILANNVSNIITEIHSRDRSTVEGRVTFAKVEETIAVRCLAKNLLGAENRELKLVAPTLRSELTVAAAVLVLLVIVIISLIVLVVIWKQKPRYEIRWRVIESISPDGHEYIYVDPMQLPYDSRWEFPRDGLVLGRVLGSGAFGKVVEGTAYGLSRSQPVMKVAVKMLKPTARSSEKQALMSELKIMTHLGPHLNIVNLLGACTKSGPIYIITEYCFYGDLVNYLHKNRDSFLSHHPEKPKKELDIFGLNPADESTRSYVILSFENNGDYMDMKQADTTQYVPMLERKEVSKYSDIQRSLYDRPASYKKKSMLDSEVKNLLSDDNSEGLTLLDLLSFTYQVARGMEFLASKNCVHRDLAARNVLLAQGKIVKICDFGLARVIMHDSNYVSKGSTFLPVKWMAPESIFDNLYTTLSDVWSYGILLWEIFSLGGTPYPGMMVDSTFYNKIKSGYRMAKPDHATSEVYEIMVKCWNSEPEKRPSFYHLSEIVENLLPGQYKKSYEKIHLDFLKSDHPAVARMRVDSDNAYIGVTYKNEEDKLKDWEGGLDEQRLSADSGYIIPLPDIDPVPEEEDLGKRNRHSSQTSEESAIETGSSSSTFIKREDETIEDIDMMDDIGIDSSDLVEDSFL

For the compound “YARAAARQARAKALNRQLGVA (Mammalian) [MMI-0200]”, the “PKA(h) % activity” value with PKA(h) was determined as 110%. Besides, the “collagen levels in the lung (Masson's blue trichrome), dose response” value in series [1] is “did not reduce, but rather increased the collagen deposition”. In addition, the “protein level of fibronectin (conditioned media)” value in [2] is “no changes in the protein level”.

For the compound “HRRIKAWLKKIKALARQLGVAA (Mammalian) [MMI-0500]”, the “Aurora-A(h) % activity” value in the series with Aurora-A(h) is 110%. Further, in the series with PDGFRα(D842V)(h), the “PDGFRα(D842V)(h) % activity” value is 170%. In addition, in the series with PKA(h), the “PKA(h) % activity” value turned out to be 118%. In the series with cKit(V560G)(h), the “cKit(V560G)(h) % activity” value was 198%.

Take `CC(C)C[C@H](NC(=O)[C@H](C)NC(=O)[C@H](CCCCN)NC(=O)[C@H](C)NC(=O)[C@H](CCCNC(=N)N)NC(=O)[C@H](C)NC(=O)[C@H](CCC(N)=O)NC(=O)[C@H](CCCNC(=N)N)NC(=O)[C@H](C)NC(=O)[C@H](C)NC(=O)[C@H](C)NC(=O)[C@H](CCCNC(=N)N)NC(=O)[C@H](C)NC(=O)[C@@H](N)Cc1ccc(O)cc1)C(=O)N[C@@H](C)C(=O)N[C@@H](CCCNC(=N)N)C(=O)N[C@@H](CCC(N)=O)C(=O)N[C@@H](CC(C)C)C(=O)NCC(=O)N[C@H](C(=O)N[C@@H](C)C(=O)N[C@@H](C)C(=O)O)C(C)C` [MMI-0100] (H-YARAAARQARAKALARQLGVAA-OH; N-terminus and C-terminus assumed): in series [1], the “collagen levels in the lung (Masson's blue trichrome), dose response” value is “decrease in collagen levels”. Moreover, the “collagen accumulation (Masson's Trichrome staining)” value in [1] (setting [4]) was “reduced collagen accumulation”. For the same compound, the “fibrotic loci formation (H&E staining)” value in series [1] (setting [4]) is “significantly reduced development of fibrotic loci formation”. The “total collagen levels in the lungs (from hydroxyproline)” value in [1] (nebulized or systemic (IP), post-inflammatory/pre-fibrotic stage, vs bleomycin control) was “significantly decreased collagen deposition”. Further, the “proliferation of T cells in the presence of antigen presenting cells” value in the series on splenic T cells (50 μg/kg/day intraperitoneal (systemic)) was “significantly reduced”; in the series on splenic T cells (50 μg/kg/day nebulizer (inhaled)) it was “not by the inhaled mode”. For the same compound, in the series with splenic T cells (50 μg/kg/day), the “toxicity (proliferative response of splenic T cells to α-CD3)” value is “no toxicity”. For the same compound, the “activated MK2 (phospho-Thr^334-MAPKAPK2) staining” value in the series with phospho-Thr^334-MAPKAPK2 is “decreased phospho-Thr^334-MAPKAPK2 staining”. Besides, the “plasma level of TNF-α” value with TNF-α was “significantly reduced”. Moreover, in the series with α-SMA, the “level of α-SMA in lungs” value is reported as “significantly attenuated”. Further, the “protein level of fibronectin (conditioned media)” value in series [2] is listed as “decreases in the levels”. In series [3], the “enhancement of ISO induced relaxation” value was 13%.

Turning to KAFAKLAARLYRKALARQLGVAA [MMI-0400], the “PDGFRα(D842V)(h) % activity” value in the series with PDGFRα(D842V)(h) was determined as 118%. Also, the “cKit(V560G)(h) % activity” value in the series with cKit(V560G)(h) is listed as 124%.

FAKLAARLYRKALARQLGVAA [MMI-0300]: in the series with Aurora-A(h), the “Aurora-A(h) % activity” value is given as 92%.

Values taken from US10562947B2, “Compositions and methods for preventing or treating diseases, conditions or processes characterized by aberrant fibroblast proliferation and extracellular matrix deposition” (MOERAE MATRIX, INC., priority 2011, dated 2020).
